# Measured values published in US5219998A, “Yeast-derived epidermal growth factor” (priority 1991, dated 1993).
# What was measured:
# A431 cells [1] = test: A431 cellular respiration assay (Clark oxygen electrode); format: cell-based, human
# Description: In preparing to carry out the titration the results of which are shown in FIG. 2, 10 cm dishes of A431 cells were washed twice and incubated in 5 ml of DME containing 0.1% bovine serum albumin for 1 hour in a CO2 incubator. The cells were collected by trypsinization and resuspended at 2-3×10^6 cells per ml in DME containing 0.1% bovine serum albumin. One ml of the cell suspension was transferred to a glass tube that as maintained at 37° C. with circulating water. The cells were allowed to equilibrate at temperature for 5 minutes, and a Clark oxygen electrode was inserted into the vessel. Potentiometric readings were continuously taken from the electrode using a YSI oxygraph that was attached to a recorder. […] Respiration was allowed to continue until an accurate rate could be observed on the recorder. The rates of respiration were converted to microliters of oxygen per hour per 2×10^6 cells.
# Similarly, the yEGF fractions were titered by measuring their immediate effect on the consumption of oxygen by A431 cells.
# The Experimental Over Control (EXP/CON) is the rate of respiration observed with yEGF(Fraction I) divided by the basal respiration rate for that sample.
# anti-mEGF antibody = test: Anti-murine EGF Elisa titration; format: binding, goat; settings: Elisa absorbance; significant at <0.1; standard error 0.019
# Description: One ml of a 100 mg/ml sample of a yeast extract yEGF(Fraction I) was diluted to 10% with trichloroacetic acid (Fisher Scientific no. A322-100) and allowed to stand for 30 minutes on ice. Precipitated material was collected on a centrifuge at 10,000×g for 10 minutes, and washed twice with 95% ethanol. The insoluble material was dissolved in 1 ml of water and dispersed in a 96 well plate by serial dilutions. Unbound antigen was removed after 3 hours at 37° C. and the plate was incubated with monospecific anti-mEGF antibody overnight at 4° C. Excess antibody was removed by washing the plates and a second antibody conjugated to alkaline phosphatase was added to each well. After 3 hours at 37° C., the excess second antibody was removed and the amount of alkaline phosphatase per well was determined. The Elisa test was dependent on the amount of y-EGF present. In preparation of the materials for the titration shown in the graph of FIG. 6, one hundred microliters of PBS was added to each well of a 96 well microtiter plate. Twenty five microliters of 10 mg/ml yEGF was added to the second well of each row. After mixing, 25 microliters was transferred to the third well in the row. The process was repeated until all the wells had dilutions of yEGF. The antigen was allowed to bind at 37° C. for 3 hours and the plate was washed 3 times with PBS containing 0.05% Tween-20(TPBS). […]
# A431 cells [2] = test: Relative stability at 55° C. measured by stimulation of A431 cellular respiration; format: cell-based, human; settings: 100 ng of mEGF
# Description: Referring to FIG. 4, a graph is shown summarizing the results obtained for yEGF(Fraction I) and mEGF.
# In preparation for the titration the results of which are shown in FIG. 4, twenty microliter samples of either 100 ng of mEGF or 500 ug of yEGF(Fraction I) were incubated for various times at 55° C. The samples were removed and assayed for their ability to stimulate A431 cell respiration. The procedures for measuring respiration were the same as those which are summarized in relationship to the work leading to FIG. 2.
# human EGF receptor = human EGF receptor (Homo sapiens, UniProt P00533); test: Binding to EGF receptor of A431 cells (125I-mEGF competition); settings: read-out: binding constant (KD), same experiment
substance,measurement,setting,value
mEGF: pure murine EGF (Collaborative Research no 40001),% Stimulation of A431 respiration,A431 cells [1]; 6.5 ug/ml a-mEGF,1.5%
same,% Stimulation of A431 respiration,A431 cells [1]; 10 ug/ml murine IGG,91.8%
same,% Stimulation of A431 respiration,A431 cells [1]; 0.1mM DTT,44.8%
same,effect of Dithiotrietol (DTT) on activity,A431 cells [1]; DTT,enhanced
same,slope of regression Z=1.512 ug/ml EGF+1.03,"A431 cells [1]; Z = respiration ratio to control, concentration in ug/ml, intercept 1.03, 98% confidence",1.512
same,activity after boiling,A431 cells [1]; boiled,denatured
same,% Stimulation of A431 respiration,"A431 cells [1]; no pretreatment, 0.5 ug/ml mEGF or 1.0 mg/ml yEGF (Fraction I)",17.8%
same,% Stimulation of A431 respiration,A431 cells [1]; pretreatment 30 min 2 ug/ml ProK,1.0%
same,% Stimulation of A431 respiration,A431 cells [1]; pretreatment 30 min 2 ug/ml RNase A,17.6%
same,% Stimulation of A431 respiration,A431 cells [1]; pretreatment 30 min 2ug/ml trypsin,1%
same,% Stimulation of A431 respiration,A431 cells [1]; pretreatment 30 min 10 ug/ml DNasel,18.2%
same,% Stimulation of A431 respiration,A431 cells [1]; pretreatment Boiling,2.1%
same,regression coefficient: one ug equals 0.0518(ABS)--0.0223,anti-mEGF antibody,0.0518
same,time to loss of ability to stimulate respiration,A431 cells [2],≤ 10 min
same,Kd,human EGF receptor,2.42 nM
